Measurements from PubChem BioAssay (NCI).
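96-well plates; 48 h exposure; 5 concentrations. Endpoints by linear interpolation between flanking doses. Not reached: highest tested concentration assigned. TGI is the concentration that stops growth completely.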

Assays:
Experiment in all cases: NCI-60 cell line screen, 48 h
[1] = tested on: EKVX NSCLC
[2] = tested on: KM20L2 colon
[3] = tested on: MOLT-4 leukemia
[4] = tested on: TK-10 renal
[5] = tested on: SN12C renal
[6] = tested on: SK-OV-3 ovarian
[7] = tested on: DMS 273 small cell lung
[8] = tested on: SR leukemia
[9] = tested on: HOP-92 NSCLC
[10] = tested on: COLO 205 colon
[11] = tested on: K-562 leukemia
[12] = tested on: MALME-3M melanoma
[13] = tested on: SW-620 colon
[14] = tested on: M14 melanoma
[15] = tested on: SK-MEL-2 melanoma
[16] = tested on: 786-0 renal
[17] = tested on: SNB-19 CNS
[18] = tested on: HS 578T breast
[19] = tested on: LOX IMVI melanoma
[20] = tested on: CCRF-CEM leukemia
[21] = tested on: A549 NSCLC
[22] = tested on: DLD-1 colon
[23] = tested on: NCI-H23 lung
[24] = tested on: MDA-MB-231 breast
[25] = tested on: ACHN renal
[26] = tested on: DU-145 prostate
[27] = tested on: U251 CNS
[28] = tested on: OVCAR-3 ovarian
[29] = tested on: HT29 colon
[30] = tested on: LXFL 529 NSCLC
[31] = tested on: UACC-257 melanoma
[32] = tested on: RXF 393 renal
[33] = tested on: HL-60(TB) leukemia
[34] = tested on: SK-MEL-28 melanoma
[35] = tested on: HOP-62 NSCLC
[36] = tested on: SF-268 CNS
[37] = tested on: NCI-H460 lung
[38] = tested on: A498 renal
[39] = tested on: SK-MEL-5 melanoma
[40] = tested on: NCI-H522 lung
[41] = tested on: NCI-H226 lung
[42] = tested on: HCC-2998 colon
[43] = tested on: SF-295 CNS
[44] = tested on: HOP-18 NSCLC
[45] = tested on: SNB-75 CNS
[46] = tested on: KM12 colon
[47] = tested on: OVCAR-4 ovarian
[48] = tested on: DMS 114 small cell lung
[49] = tested on: OVCAR-5 ovarian
[50] = tested on: HCT-15 colon
[51] = tested on: M19-MEL melanoma
[52] = tested on: OVCAR-8 ovarian
[53] = tested on: CAKI-1 renal
[54] = tested on: MDA-MB-435
[55] = tested on: PC-3 prostate
[56] = tested on: UO-31 renal
[57] = tested on: HCT-116 colon
[58] = tested on: NCI/ADR-RES ovarian
[59] = tested on: MDA-N
[60] = tested on: SNB-78 CNS
[61] = tested on: RPMI-8226 leukemia
[62] = tested on: UACC-62 melanoma
[63] = tested on: SF-539 CNS
[64] = tested on: IGROV1 ovarian
[65] = tested on: T-47D breast
[66] = tested on: XF 498 CNS

## CC1=CC2=C(OCO1)C(=O)c1ccccc1C2=O
[1]
  TGI: > 100 µM
[2]
  TGI: 46.6 µM
[3]
  TGI: 25.3 µM
[4]
  TGI: > 81.3 µM
[5]
  TGI: 11.4 µM
[6]
  TGI: 48.9 µM
[7]
  TGI: 26.7 µM
[8]
  TGI: 41.7 µM
[9]
  TGI: 23 µM
[10]
  TGI: 11.5 µM
[11]
  TGI: 40.3 µM
[12]
  TGI: 6.48 µM
[13]
  TGI: 21.6 µM
[14]
  TGI: 8.97 µM
[15]
  TGI: 2.23 µM
[16]
  TGI: > 56.9 µM
[17]
  TGI: 34 µM
[18]
  TGI: 4.25 µM
[19]
  TGI: 8.38 µM
[20]
  TGI: 45.7 µM
[21]
  TGI: 38.9 µM
[22]
  TGI: 81.9 µM
[23]
  TGI: 8.06 µM
[24]
  TGI: 22.4 µM
[25]
  TGI: 18.6 µM
[26]
  TGI: 3.67 µM
[27]
  TGI: 13.3 µM
[28]
  TGI: 13.3 µM
[29]
  TGI: 16.8 µM
[30]
  TGI: 52.8 µM
[31]
  TGI: 7.29 µM
[32]
  TGI: 12.5 µM
[33]
  TGI: 23.1 µM
[34]
  TGI: 10.3 µM
[35]
  TGI: 15.1 µM
[36]
  TGI: 26.1 µM
[37]
  TGI: 19.1 µM
[38]
  TGI: 29.5 µM
[39]
  TGI: 5.27 µM
[40]
  TGI: 8.87 µM
[41]
  TGI: 30.2 µM
[42]
  TGI: > 100 µM
[43]
  TGI: 8.61 µM
[44]
  TGI: 27.1 µM
[45]
  TGI: 9.1 µM
[46]
  TGI: 21.9 µM
[47]
  TGI: 8.5 µM
[48]
  TGI: 12.1 µM
[49]
  TGI: 10.8 µM
[50]
  TGI: 51.6 µM
[51]
  TGI: 3.58 µM
[52]
  TGI: 32.3 µM
[53]
  TGI: > 94 µM
[54]
  TGI: 2.77 µM
[55]
  TGI: > 100 µM
[56]
  TGI: 28.7 µM
[57]
  TGI: 19.6 µM
[58]
  TGI: 9.94 µM
[59]
  TGI: 1.48 µM
[60]
  TGI: > 100 µM
[61]
  TGI: > 100 µM
[62]
  TGI: 9.89 µM
[63]
  TGI: 12.8 µM
[64]
  TGI: 27.6 µM
[65]
  TGI: 7.47 µM

## Cc1nc(Nc2nnc(-c3cc([N+](=O)[O-])cc([N+](=O)[O-])c3C)o2)sc1C(=O)CC(=O)Cc1nc2ccc(Cl)cc2[nH]c1=O
[1]
  TGI: > 100 µM
[2]
  TGI: > 100 µM
[3]
  TGI: > 100 µM
[4]
  TGI: > 100 µM
[5]
  TGI: > 100 µM
[6]
  TGI: > 100 µM
[7]
  TGI: > 100 µM
[8]
  TGI: > 100 µM
[9]
  TGI: > 100 µM
[10]
  TGI: > 100 µM
[66]
  TGI: > 100 µM
[11]
  TGI: > 100 µM
[13]
  TGI: > 100 µM
[14]
  TGI: > 100 µM
[15]
  TGI: > 100 µM
[17]
  TGI: > 100 µM
[19]
  TGI: > 100 µM
[20]
  TGI: > 100 µM
[21]
  TGI: > 100 µM
[23]
  TGI: > 100 µM
[25]
  TGI: > 100 µM
[27]
  TGI: > 100 µM
[29]
  TGI: > 100 µM
[30]
  TGI: > 100 µM
[31]
  TGI: > 100 µM
[32]
  TGI: > 100 µM
[33]
  TGI: > 100 µM
[34]
  TGI: > 100 µM
[35]
  TGI: > 100 µM
[36]
  TGI: > 100 µM
[37]
  TGI: > 100 µM
[38]
  TGI: > 100 µM
[39]
  TGI: > 100 µM
[40]
  TGI: > 100 µM
[41]
  TGI: > 100 µM
[42]
  TGI: > 100 µM
[43]
  TGI: > 100 µM
[45]
  TGI: > 100 µM
[46]
  TGI: > 100 µM
[47]
  TGI: > 100 µM
[48]
  TGI: > 100 µM
[49]
  TGI: > 100 µM
[50]
  TGI: > 100 µM
[51]
  TGI: > 100 µM
[52]
  TGI: > 100 µM
[53]
  TGI: > 100 µM
[56]
  TGI: > 100 µM
[57]
  TGI: > 100 µM
[60]
  TGI: > 100 µM
[61]
  TGI: > 100 µM
[62]
  TGI: > 100 µM
[63]
  TGI: > 100 µM
[64]
  TGI: > 100 µM

## c1cncc(C2c3[nH]c4ccccc4c3CCN2CCCN2CCCCC2)c1 (stereo not drawn)
[1]
  TGI: > 100 µM
[2]
  TGI: > 100 µM
[3]
  TGI: > 100 µM
[4]
  TGI: > 100 µM
[5]
  TGI: > 100 µM
[6]
  TGI: > 100 µM
[7]
  TGI: > 100 µM
[8]
  TGI: > 100 µM
[9]
  TGI: > 100 µM
[10]
  TGI: > 100 µM
[66]
  TGI: > 100 µM
[11]
  TGI: > 100 µM
[12]
  TGI: 92.5 µM
[13]
  TGI: > 100 µM
[14]
  TGI: 41.1 µM
[15]
  TGI: > 100 µM
[16]
  TGI: > 100 µM
[17]
  TGI: > 100 µM
[19]
  TGI: > 100 µM
[21]
  TGI: > 100 µM
[22]
  TGI: > 100 µM
[23]
  TGI: > 100 µM
[25]
  TGI: > 100 µM
[27]
  TGI: > 100 µM
[28]
  TGI: > 100 µM
[29]
  TGI: > 100 µM
[30]
  TGI: > 100 µM
[31]
  TGI: > 100 µM
[32]
  TGI: > 100 µM
[33]
  TGI: > 100 µM
[34]
  TGI: 47 µM
[35]
  TGI: > 100 µM
[37]
  TGI: > 100 µM
[38]
  TGI: > 100 µM
[39]
  TGI: > 100 µM
[40]
  TGI: > 100 µM
[41]
  TGI: > 100 µM
[42]
  TGI: > 100 µM
[43]
  TGI: > 100 µM
[45]
  TGI: > 100 µM
[46]
  TGI: > 100 µM
[47]
  TGI: > 100 µM
[48]
  TGI: > 100 µM
[49]
  TGI: > 100 µM
[50]
  TGI: > 100 µM
[51]
  TGI: > 100 µM
[52]
  TGI: > 100 µM
[53]
  TGI: > 100 µM
[56]
  TGI: > 100 µM
[57]
  TGI: > 100 µM
[60]
  TGI: > 100 µM
[61]
  TGI: > 100 µM
[62]
  TGI: > 100 µM
[63]
  TGI: > 100 µM
[64]
  TGI: > 100 µM

## COc1ccc2[nH]c3c4c(c5cc(C(C)(C)C)ccc5c3c2c1)C(=O)N(c1ccccc1)C4=O
[1]
  TGI: > 100 µM
[2]
  TGI: > 100 µM
[3]
  TGI: > 100 µM
[4]
  TGI: > 100 µM
[6]
  TGI: > 100 µM
[10]
  TGI: > 100 µM
[11]
  TGI: > 100 µM
[12]
  TGI: > 100 µM
[13]
  TGI: > 100 µM
[14]
  TGI: > 100 µM
[15]
  TGI: > 100 µM
[16]
  TGI: > 100 µM
[17]
  TGI: > 100 µM
[19]
  TGI: > 100 µM
[21]
  TGI: > 100 µM
[22]
  TGI: 30.3 µM
[23]
  TGI: > 100 µM
[27]
  TGI: > 100 µM
[28]
  TGI: > 100 µM
[29]
  TGI: > 100 µM
[30]
  TGI: > 100 µM
[31]
  TGI: > 100 µM
[32]
  TGI: > 100 µM
[33]
  TGI: > 100 µM
[34]
  TGI: > 100 µM
[35]
  TGI: > 100 µM
[36]
  TGI: > 100 µM
[37]
  TGI: > 100 µM
[38]
  TGI: 61.6 µM
[39]
  TGI: > 100 µM
[40]
  TGI: > 100 µM
[41]
  TGI: > 100 µM
[42]
  TGI: 47.4 µM
[43]
  TGI: > 100 µM
[44]
  TGI: > 100 µM
[45]
  TGI: > 100 µM
[46]
  TGI: > 100 µM
[47]
  TGI: > 100 µM
[48]
  TGI: > 100 µM
[49]
  TGI: > 100 µM
[51]
  TGI: > 100 µM
[52]
  TGI: > 100 µM
[53]
  TGI: > 100 µM
[56]
  TGI: > 100 µM
[57]
  TGI: > 100 µM
[60]
  TGI: > 100 µM
[61]
  TGI: > 100 µM
[62]
  TGI: > 100 µM
[63]
  TGI: 49 µM
[64]
  TGI: > 100 µM
